Our source for the activity and viability values is PMC12040169 (PLOS Biology, 2025).

Data set [1] has as its system T1, C. trachomatis L2/434/Bu expressing GFP (CTL2-GFP).
T1 construct: L2/434/Bu GFP intracellular growth in HeLa cells
The experiment in a line: microbe, parasite or virus in culture. Also noted: C. trachomatis total inclusion area by high-content imaging, normalised to DMSO. The following applies: Chlamydia trachomatis, HeLa, 28.5 h; total inclusion area; read-out: % of control remaining. The text has this:
We screened a library of 36,785 small molecules displaying drug-like properties and covering a wide chemical space (Fig 1A and S2A Data). In this process, we also complemented the assay described above with an imaging-based readout (Fig 1B). After measurements of bulk GFP and resorufin fluorescence, cells were fixed, stained with the DNA dye Hoechst, and imaged at a high-content imaging platform to detect chlamydial inclusions (GFP) and host cell nuclei (Hoechst). The total area and number of inclusions in individual wells and the number of nuclei then served as additional proxies for chlamydial growth and host cell viability. […] MICs were calculated as described above.

The subject of data set [2] is T2, CTL2-GFP (C. trachomatis L2/434/Bu, GFP-expressing).
T2 construct: L2/434/Bu, GFP-expressing
Description: microbe, parasite or virus in culture. Also noted: Intracellular C. trachomatis growth in HeLa cells, bulk GFP fluorescence relative to DMSO. The following applies: Chlamydia trachomatis, HeLa, 28.5 h; bulk GFP, mean of 2; read-out: % of control remaining. As for the experimental part:
MICs were calculated as described above.

The next data set is described as follows: in vitro. The note with it: human, hela cells; bulk resorufin, mean of 2. Also noted: Viability of infected HeLa host cells, resazurin conversion, bulk resorufin fluorescence relative to DMSO.

For `Oc1ccc(Cn2cnc3ccccc32)c2cccnc12` [CBK291202], in data set [1], the activity at 1 µM was 116%, the activity at 5 µM was determined as 52.7% and the activity at 10 µM stood at 24.3%. In data set [2], the activity at 1 µM stood at 103%, the activity at 5 µM came out at 47.1% and the activity at 10 µM is 19.3%. In “in vitro”, the viability at 28.5 h, 1 µM is 105%; the viability at 28.5 h, 5 µM was determined as 104%; the viability at 28.5 h, 10 µM was 96%.

With `CN1CCN(c2cc3c(cc2F)c(=O)c(C(=O)O)cn3-c2ccc(F)cc2)CC1` [CBK287138], in data set [1], the activity at 1 µM stood at 11.1%, the activity at 5 µM came to 0.783% and the activity at 10 µM was 0.31%. In addition, in data set [2], the activity at 1 µM was determined as 14.6%, the activity at 5 µM came out at 5.16% and the activity at 10 µM worked out at 0.93%. Moreover, in the data set “in vitro”, the viability at 28.5 h, 1 µM turned out to be 103%; the viability at 28.5 h, 5 µM came out at 102%; the viability at 28.5 h, 10 µM was found to be 104%.

Take `O=C1CC[C@@H](NCc2cccs2)[C@H](c2cc(F)cc(F)c2)N1` [CBK283129]: in data set [1], the activity at 1 µM worked out at 98.3%, the activity at 5 µM was 76.7% and the activity at 10 µM was 78.8%. For the same molecule, in data set [2], the activity at 1 µM came out at 98.3%, the activity at 5 µM stood at 98.8% and the activity at 10 µM turned out to be 82.2%. Besides, in “in vitro”, the viability at 28.5 h, 1 µM was 112%; the viability at 28.5 h, 5 µM came out at 109%; the viability at 28.5 h, 10 µM stood at 110%.

For `CC(C)(N)CNC(=O)c1cc(C(C)(C)C)nn1Cc1ccc(Cl)cc1Cl` [CBK107296], in data set [1], the activity at 1 µM is 87.7%, the activity at 5 µM is 54.2% and the activity at 10 µM came to 26.9%. Also, in data set [2], the activity at 1 µM amounted to 115%, the activity at 5 µM was found to be 76.6% and the activity at 10 µM came out at 36%. Moreover, in the data set “in vitro”, the viability at 28.5 h, 1 µM was found to be 91.1%; the viability at 28.5 h, 5 µM was 95.2%; the viability at 28.5 h, 10 µM came to 93.8%.

For the molecule `c1ccc(Oc2cccc(OCCCN3CCCCC3)c2)cc1` [CBK261781], in data set [1], the activity at 1 µM worked out at 122%, the activity at 5 µM was 69.2% and the activity at 10 µM is 23.4%. For the same molecule, in data set [2], the activity at 1 µM came out at 131%, the activity at 5 µM was determined as 133% and the activity at 10 µM is 74.4%. In “in vitro”, the viability at 28.5 h, 1 µM was found to be 103%; the viability at 28.5 h, 5 µM came to 97%; the viability at 28.5 h, 10 µM is 101%.

Consider `COc1ccc([C@H]2CN(Cc3ccccc3)[C@@H]3CCN(C(=O)Cc4ccsc4)C[C@H]23)cc1` [CBK285551], for which, in data set [1], the activity at 1 µM was determined as 148%, the activity at 5 µM amounted to 87.9% and the activity at 10 µM stood at 48.8%. In addition, in data set [2], the activity at 1 µM was 151%, the activity at 5 µM is 107% and the activity at 10 µM amounted to 36.7%. In “in vitro”, the viability at 28.5 h, 1 µM amounted to 89.3%; the viability at 28.5 h, 5 µM was 93.6%; the viability at 28.5 h, 10 µM was found to be 93%.

In the case of `O=C(NCc1ccc([N+](=O)[O-])cc1)c1cccnc1NCc1ccc2c(c1)OCO2` [CBK153436], in data set [1], the activity at 1 µM was determined as 65.8%, the activity at 5 µM was found to be 65.9% and the activity at 10 µM is 38.2%. For the same molecule, in data set [2], the activity at 1 µM stood at 113%, the activity at 5 µM amounted to 68.2% and the activity at 10 µM was determined as 25.1%. In addition, in the data set “in vitro”, the viability at 28.5 h, 1 µM came to 103%; the viability at 28.5 h, 5 µM was 109%; the viability at 28.5 h, 10 µM amounted to 109%.

Consider `COc1ccc([C@H]2CN(Cc3ccccc3)[C@@H]3CCN(C(=O)Cc4ccccc4)C[C@H]23)cc1` [CBK286285], for which, in data set [1], the activity at 1 µM was found to be 109%, the activity at 5 µM stood at 95.8% and the activity at 10 µM was 41.4%. Besides, in data set [2], the activity at 1 µM stood at 130%, the activity at 5 µM was determined as 111% and the activity at 10 µM worked out at 49.2%. In the data set “in vitro”, the viability at 28.5 h, 1 µM amounted to 93.8%; the viability at 28.5 h, 5 µM is 97.6%; the viability at 28.5 h, 10 µM was determined as 104%.

`CC(C)NCC(O)Cn1c2c(c3ccccc31)CCc1c-2cnn1-c1ccccc1` (stereo not drawn) [CBK261107]: in data set [1], the activity at 1 µM was found to be 102%, the activity at 5 µM is 73.8% and the activity at 10 µM is 19.6%. For the same molecule, in data set [2], the activity at 1 µM stood at 101%, the activity at 5 µM was determined as 105% and the activity at 10 µM was determined as 19.8%. For the same molecule, in the data set “in vitro”, the viability at 28.5 h, 1 µM was 87.2%; the viability at 28.5 h, 5 µM was determined as 89.4%; the viability at 28.5 h, 10 µM came to 82.4%.

In the case of `O=C(CC1SC(Nc2ccc(O)cc2)=NC1=O)c1ccccc1` (stereo not drawn) [CBK267009], in data set [1], the activity at 1 µM is 84.6%, the activity at 5 µM came to 35.2% and the activity at 10 µM is 35.5%. Also, in data set [2], the activity at 1 µM was 65.7%, the activity at 5 µM stood at 34% and the activity at 10 µM amounted to 33%. For the same molecule, in the data set “in vitro”, the viability at 28.5 h, 1 µM came to 114%; the viability at 28.5 h, 5 µM amounted to 112%; the viability at 28.5 h, 10 µM was 107%.

Take `COc1ccc(C(=O)NNC(=O)/C=C/c2ccc(C(C)C)cc2)cc1` [CBK261697]: in data set [1], the activity at 1 µM is 121%, the activity at 5 µM is 97.3% and the activity at 10 µM was found to be 48.1%. In data set [2], the activity at 1 µM is 111%, the activity at 5 µM turned out to be 98% and the activity at 10 µM turned out to be 43.2%. For the same molecule, in “in vitro”, the viability at 28.5 h, 1 µM is 95%; the viability at 28.5 h, 5 µM is 95.5%; the viability at 28.5 h, 10 µM came to 94.3%.

Regarding `CC(Cc1nc(-c2nccn2C(C)C)cs1)n1cc(Cl)cn1` (stereo not drawn) [CBK304251], in data set [1], the activity at 1 µM came to 109%, the activity at 5 µM is 55.7% and the activity at 10 µM was 28.6%. Also, in data set [2], the activity at 1 µM is 125%, the activity at 5 µM is 70.4% and the activity at 10 µM is 46.9%. In addition, in “in vitro”, the viability at 28.5 h, 1 µM worked out at 90.7%; the viability at 28.5 h, 5 µM amounted to 96.5%; the viability at 28.5 h, 10 µM was found to be 92.9%.

Regarding `O=C(NCC1CC1)c1ccc(N2CCN(C(=O)c3ccccc3C(F)(F)F)CC2)nn1` [CBK153220], in data set [1], the activity at 1 µM came out at 146%, the activity at 5 µM worked out at 79.1% and the activity at 10 µM is 94.4%. Further, in data set [2], the activity at 1 µM was 149%, the activity at 5 µM was found to be 123% and the activity at 10 µM came to 138%. Further, in the data set “in vitro”, the viability at 28.5 h, 1 µM came out at 104%; the viability at 28.5 h, 5 µM was 93%; the viability at 28.5 h, 10 µM was determined as 95.9%.

As to `CCC(=O)N1CCCc2cc(C(O)CN3CCN(c4ccc(F)cc4)CC3)ccc21` (stereo not drawn) [CBK286480], in data set [1], the activity at 1 µM is 104%, the activity at 5 µM was 58.2% and the activity at 10 µM was determined as 7.99%. Further, in data set [2], the activity at 1 µM was determined as 116%, the activity at 5 µM amounted to 62% and the activity at 10 µM came out at 10.5%. Further, in “in vitro”, the viability at 28.5 h, 1 µM was 93%; the viability at 28.5 h, 5 µM was 84%; the viability at 28.5 h, 10 µM was determined as 90.3%.

Take `Cc1cccc(OCC(C)NC(=O)NCCc2cnn(C)c2)c1` (stereo not drawn) [CBK304887]: in data set [1], the activity at 1 µM was 120%, the activity at 5 µM was determined as 47.6% and the activity at 10 µM stood at 19.4%. Besides, in data set [2], the activity at 1 µM came to 115%, the activity at 5 µM is 43.5% and the activity at 10 µM amounted to 16.5%. In “in vitro”, the viability at 28.5 h, 1 µM was determined as 100%; the viability at 28.5 h, 5 µM was found to be 98.5%; the viability at 28.5 h, 10 µM came out at 89.3%.

In the case of `Cc1cc(Br)ccc1S(=O)(=O)N(C)c1ccc(N2CCNCC2)c2ccccc12` [CBK016170C], in data set [1], the activity at 1 µM came out at 63.9%, the activity at 5 µM was determined as 26.9% and the activity at 10 µM is 12.9%. Besides, in data set [2], the activity at 1 µM came out at 106%, the activity at 5 µM was 75.3% and the activity at 10 µM was found to be 35.2%. In the data set “in vitro”, the viability at 28.5 h, 1 µM was 91.8%; the viability at 28.5 h, 5 µM is 92.1%; the viability at 28.5 h, 10 µM came to 112%.

For `CCc1ccc(S(=O)(=O)Nc2cc(SCC(=O)O)c(O)c3ccccc23)cc1` [CBK265580], in data set [1], the activity at 1 µM turned out to be 84.1%, the activity at 5 µM amounted to 15.3% and the activity at 10 µM turned out to be 7.41%. For the same molecule, in data set [2], the activity at 1 µM was found to be 97.7%, the activity at 5 µM is 47% and the activity at 10 µM came out at 37.3%. For the same molecule, in the data set “in vitro”, the viability at 28.5 h, 1 µM was 95.6%; the viability at 28.5 h, 5 µM is 88.8%; the viability at 28.5 h, 10 µM came out at 81.9%.

As for `CCC(CN1CCCC1)NC(=O)Cc1ccc(OC)c(C)c1` (stereo not drawn) [CBK282752], in data set [1], the activity at 1 µM amounted to 108%, the activity at 5 µM was found to be 47.2% and the activity at 10 µM worked out at 26.1%. Moreover, in data set [2], the activity at 1 µM was 100%, the activity at 5 µM amounted to 50.3% and the activity at 10 µM worked out at 19.9%. Moreover, in “in vitro”, the viability at 28.5 h, 1 µM stood at 108%; the viability at 28.5 h, 5 µM stood at 112%; the viability at 28.5 h, 10 µM is 108%.

`C[C@@H]1CN(c2ccc(C(F)(F)F)c(OCc3ccccc3)n2)CCN1` [CBK003987A]: in data set [1], the activity at 1 µM was found to be 70.4%, the activity at 5 µM came out at 53.4% and the activity at 10 µM turned out to be 17.6%. In data set [2], the activity at 1 µM came out at 110%, the activity at 5 µM amounted to 90.5% and the activity at 10 µM is 35%. Also, in the data set “in vitro”, the viability at 28.5 h, 1 µM came out at 102%; the viability at 28.5 h, 5 µM was found to be 98.9%; the viability at 28.5 h, 10 µM was found to be 113%.
